Reference: patent publication US20230146455A1, “TREATMENT OF INFLAMMATORY DISEASES WITH PEPTIDES AND PHARMACEUTICAL COMPOSITIONS” (Yuyu Pharma, Inc., priority 2020, published 2023)
Values joined by “and” are separate entries in the source; they are usually repeats but may differ in a detail not shown here. Equal entries are not always repeated. Where a SMILES comes first, the peptide text is derived from it. [ ]: non-standard residue; d: D form. Hyp = O=C(O)[C@@H]1C[C@@H](O)CN1

Key:
[1] = test system: Leptin; assay: Example 8 main study Luminex, LPS hPBMCs: Leptin; type: cell-based, human; details: PBMC + LPS(5 ug/ml)
Experimental: (§1) Human PBMCs were pretreated with YY-101, YDE-011, YDE-043 or reference compound; Xiidra® at various concentration (ranging from […] to 500 nM) for 2 h before stimulation. An equal volume of 0.5% DMSO was used as a vehicle control. Then, the cells were treated with LPS at 5 ug/ml, which was selected based on the pilot study. The supernatants from treated cells were harvested at 24 h and placed in a 96 well for Luminex cytokine & chemokine profiling using a Luminex 200 multiplex assay (Luminex; R&D system, USA).
(§2) The main study arm with triplicate wells per group in a 24-well plate: • 1. Blank • 2. PBMC: 0.5% DMSO • 3. PBMC+LPS (5 ug/ml) • 4. PBMC+YY-101 500 nM • 5. PBMC+YY-101 50 nM • 6. PBMC+YY-101 5 nM • 7. PBMC+YY-101 0.5 nM • 8. PBMC+LPS (5 ug/ml)+Xiidra® 500 nM • 9. PBMC+LPS (5 ug/ml)+Xiidra® 50 nM • 10. PBMC+LPS (5 ug/ml)+Xiidra® 5 nM • 11. PBMC+LPS (5 ug/ml)+Xiidra® 0.5 nM • 12. PBMC+LPS (5 ug/ml)+Xiidra® 0.05 nM • 13. PBMC+LPS (5 ug/ml)+Xiidra® 0.005 nM • 14. PBMC+LPS (5 ug/ml)+YY-101 500 nM • 15. PBMC+LPS (5 ug/ml)+YY-101 50 nM • 16. PBMC+LPS (5 ug/ml)+YY-101 5 nM • 17. PBMC+LPS (5 ug/ml)+YY-101 0.5 nM • 18. PBMC+LPS (5 ug/ml)+YY-101 0.05 nM • 19. PBMC+LPS (5 ug/ml)+YY-101 0.005 nM • 20. PBMC+LPS (5 ug/ml)+YDE-011 500 nM • 21. PBMC+LPS (5 ug/ml)+YDE-011 50 nM • 22. PBMC+LPS (5 ug/ml)+YDE-011 5 nM • 23. PBMC+LPS (5 ug/ml)+YDE-011 0.5 nM • 24. PBMC+LPS (5 ug/ml)+YDE-011 0.05 nM • 25. PBMC+LPS (5 ug/ml)+YDE-011 0.005 nM • 26. PBMC+LPS (5 ug/ml)+YDE-043 500 nM • 27. PBMC+LPS (5 ug/ml)+YDE-043 50 nM • 28. PBMC+LPS (5 ug/ml)+YDE-043 5 nM • 29. PBMC+LPS (5 ug/ml)+YDE-043 0.5 nM • 30. PBMC+LPS (5 ug/ml)+YDE-043 0.05 nM • 31. PBMC+LPS (5 ug/ml)+YDE-043 0.005 nM
(§3) Multiplex assay was used to measure 30 cytokines and chemokines. The 1:200 diluted cell supernatant and serial dilution of the standard were dispensed into a 96 well plate at 50 ul/well. Then, the pre-mixed cocktail of antibody-coated magnetic beads was dispensed at 50 ul/well and incubated at room temperature for 2 h in a horizontal orbital microplate shaker at 800±500 rpm. The beads were washed using a magnetic device to prevent loss. The biotin-antibody was dispensed in 50 ul of each well and incubated at room temperature for 1 h in a shaker at 800±500 rpm. After washing, streptavidin-PE was added at 50 ul/well and incubated at room temperature for 30 min in a shaker under the same conditions. Finally, after washing, wash buffer (100 ul/well) was added to the plate and incubated in a shaker for 2 min. The Luminex™ 200 setting were set according to the manufacturer's protocol. The data was calculated with a standard five-parameter logistic nonlinear regression analysis of the data (xPonent software 4.2, USA). Results were presented as concentration (ng/ml or pg/ml).

[2] = test system: IL-1 alpha/IL-1F1; assay: Example 8 main study Luminex, LPS hPBMCs: IL-1 alpha/IL-1F1; type: cell-based, human
Experimental: as §1, §2, §3

[3] = PBMC + LPS(5 ug/ml) + test article 0.005 nM, Mean
[4] = PBMC + LPS(5 ug/ml) + test article 0.005 nM, individual replicates
[5] = PBMC + LPS(5 ug/ml) + test article 0.05 nM, Mean
[6] = PBMC + LPS(5 ug/ml) + test article 0.05 nM, individual replicates
[7] = PBMC + LPS(5 ug/ml) + test article 0.5 nM, Mean
[8] = PBMC + LPS(5 ug/ml) + test article 0.5 nM, individual replicates
[9] = PBMC + LPS(5 ug/ml) + test article 5 nM, Mean
[10] = PBMC + LPS(5 ug/ml) + test article 5 nM, individual replicates
[11] = PBMC + LPS(5 ug/ml) + test article 50 nM, Mean
[12] = PBMC + LPS(5 ug/ml) + test article 50 nM, individual replicates
[13] = PBMC + LPS(5 ug/ml) + test article 500 nM, Mean
[14] = PBMC + LPS(5 ug/ml) + test article 500 nM, individual replicates

Compound	Leptin Concentration (pg/ml), Mean ([1]; test article 0.005 nM) [pg/mL]	Leptin Concentration (pg/ml), single replicates ([1]; test article 0.005 nM)	Leptin Concentration (pg/ml), Mean ([1]; test article 0.05 nM) [pg/mL]	Leptin Concentration (pg/ml), single replicates ([1]; test article 0.05 nM)	Leptin Concentration (pg/ml), Mean ([1]; test article 0.5 nM) [pg/mL]	Leptin Concentration (pg/ml), single replicates ([1]; test article 0.5 nM)	Leptin Concentration (pg/ml), Mean ([1]; test article 5 nM) [pg/mL]	Leptin Concentration (pg/ml), single replicates ([1]; test article 5 nM)	Leptin Concentration (pg/ml), Mean ([1]; test article 50 nM) [pg/mL]	Leptin Concentration (pg/ml), single replicates ([1]; test article 50 nM)	Leptin Concentration (pg/ml), Mean ([1]; test article 500 nM) [pg/mL]	Leptin Concentration (pg/ml), single replicates ([1]; test article 500 nM)	IL-1 alpha/IL-1F1 Concentration [2, 3] [pg/mL]	IL-1 alpha/IL-1F1 MFI [2, 3]	IL-1 alpha/IL-1F1 Concentration [2, 4]	IL-1 alpha/IL-1F1 MFI [2, 4]	IL-1 alpha/IL-1F1 Concentration [2, 5] [pg/mL]	IL-1 alpha/IL-1F1 MFI [2, 5]	IL-1 alpha/IL-1F1 Concentration [2, 6]	IL-1 alpha/IL-1F1 MFI [2, 6]	further results
CC(C)C[C@H](NC(=O)[C@H](CCC(N)=O)NC(=O)CNC(=O)[C@@H]1C[C@@H](O)CN1)C(=O)NCC(=O)O [YDE-043] (H-[Hyp]GQLG-OH; N-terminus and C-terminus assumed)	19724.6	18547.4 pg/ml (2×) and 22079.2 pg/ml	10481.4	10481.4 pg/ml and <98.95 pg/ml (2×)	15646.1	12493.0 pg/ml and 17222.7 pg/ml (2×)	15505.7	19789.4 pg/mL and 12493.0 pg/mL and 14234.9 pg/mL	18458.0	15795.3 pg/ml and 19789.4 pg/ml (2×)	10678.9	17222.7 pg/mL and 4332.6 pg/mL and 10481.4 pg/mL	489.6	30.5	383.2 pg/mL and 490.5 pg/mL and 595.1 pg/mL	27.0 and 30.5 and 34.0	330.9	25.3	351.9 pg/ml and 320.3 pg/ml (2×)	26.0 and 25.0 (2×)	LPS-induced IL-1a levels (in words) ([2]; LPS 5 ug/mL 24 hrs): significantly lowered; IL-1 alpha/IL-1F1 Concentration [2, 7]: 351.9 pg/mL; IL-1 alpha/IL-1F1 MFI [2, 7]: 26.0; IL-1 alpha/IL-1F1 Concentration [2, 8]: 351.9 pg/mL and 367.6 pg/mL and 336.2 pg/mL; IL-1 alpha/IL-1F1 MFI [2, 8]: 26.0 and 26.5 and 25.5; IL-1 alpha/IL-1F1 Concentration [2, 9]: 465.1 pg/mL; IL-1 alpha/IL-1F1 MFI [2, 9]: 29.7; IL-1 alpha/IL-1F1 Concentration [2, 10]: 505.6 pg/ml and 444.9 pg/ml (2×); IL-1 alpha/IL-1F1 MFI [2, 10]: 31.0 and 29.0 (2×); IL-1 alpha/IL-1F1 Concentration [2, 11]: 434.5 pg/mL; IL-1 alpha/IL-1F1 MFI [2, 11]: 28.7; IL-1 alpha/IL-1F1 Concentration [2, 12]: 475.3 pg/mL and 444.9 pg/mL and 383.2 pg/mL; IL-1 alpha/IL-1F1 MFI [2, 12]: 30.0 and 29.0 and 27.0; IL-1 alpha/IL-1F1 Concentration [2, 13]: 424.2 pg/mL; IL-1 alpha/IL-1F1 MFI [2, 13]: 28.3; IL-1 alpha/IL-1F1 Concentration [2, 14]: 475.3 pg/mL and 414.2 pg/mL and 383.2 pg/mL; IL-1 alpha/IL-1F1 MFI [2, 14]: 30.0 and 28.0 and 27.0
CC(C)C[C@H](NC(=O)CNC(=O)[C@H](CC(C)C)NC(=O)[C@H](CCC(N)=O)NC(=O)CNC(=O)[C@@H]1C[C@@H](O)CN1)C(=O)N[C@@H](C)C(=O)NCC(=O)N1CCC[C@H]1C(=O)N[C@@H](CCCCN)C(=O)O [YDE-011] (H-[Hyp]GQLGLAGPK-OH)	14975.6	17222.7 pg/ml (2×) and 10481.4 pg/ml	14835.2	19789.4 pg/mL and 10481.4 pg/mL and 14234.9 pg/mL	9683.0	10481.4 pg/mL and 4332.6 pg/mL and 14234.9 pg/mL	10777.7	<98.95 pg/mL and 4332.6 pg/mL and 17222.7 pg/mL	12358.1	10481.4 pg/mL and 14234.9 pg/mL and <98.95 pg/mL	13896.3	19789.4 pg/mL and <98.95 pg/mL and 8003.2 pg/mL	510.2	31.2	595.1 pg/mL and 460.1 pg/mL and 475.3 pg/mL	34.0 and 29.5 and 30.0	510.3	31.2	535.6 pg/mL and 550.5 pg/mL and 444.9 pg/mL	32.0 and 32.5 and 29.0	IL-1 alpha/IL-1F1 Concentration [2, 7]: 403.8 pg/mL; IL-1 alpha/IL-1F1 MFI [2, 7]: 27.7; IL-1 alpha/IL-1F1 Concentration [2, 8]: 429.6 pg/mL and 383.2 pg/mL and 398.7 pg/mL; IL-1 alpha/IL-1F1 MFI [2, 8]: 28.5 and 27.0 and 27.5; IL-1 alpha/IL-1F1 Concentration [2, 9]: 324.6 pg/mL; IL-1 alpha/IL-1F1 MFI [2, 9]: 25.2; IL-1 alpha/IL-1F1 Concentration [2, 10]: 256.0 pg/mL and 288.4 pg/mL and 429.6 pg/mL; IL-1 alpha/IL-1F1 MFI [2, 10]: 23.0 and 24.0 and 28.5; IL-1 alpha/IL-1F1 Concentration [2, 11]: 278.0 pg/mL; IL-1 alpha/IL-1F1 MFI [2, 11]: 23.8; IL-1 alpha/IL-1F1 Concentration [2, 12]: 320.3 pg/mL and 84.2 pg/mL and 429.6 pg/mL; IL-1 alpha/IL-1F1 MFI [2, 12]: 25.0 and 18.0 and 28.5; IL-1 alpha/IL-1F1 Concentration [2, 13]: 275.3 pg/mL; IL-1 alpha/IL-1F1 MFI [2, 13]: 24.0; IL-1 alpha/IL-1F1 Concentration [2, 14]: 535.6 pg/mL and 1.9 pg/mL and 288.4 pg/mL; IL-1 alpha/IL-1F1 MFI [2, 14]: 32.0 and 16.0 and 24.0
